Results: patent EP3033337B1, “SUBSTITUTED IMIDAZOLES AS N-TYPE CALCIUM CHANNEL BLOCKERS” (Janssen Pharmaceutica NV, priority 2013, dated 2015)

Columns and labels:
human N-type Ca channel [1] = molecular target: T1, human N-type Ca channel (Homo sapiens, UniProt Q00975); experiment: Electrophysiological response, QPatch (depolarization -80 mV to +20 mV); conditions: for inhibition at 10 µM: read-out: Qpatch Pulse=1 (percent inhibition); for N Type IC50 Data Qpatch Pulse=1 / N Type IC50 Data Qpatch Pulse=15: concentration range 0.01-0.3 µM
Method: The recombinant cell line described above was used in the measurement of electrophysiological properties with QPatch (Sophion). Cells were maintained in culture as mentioned above. Prior to the experiment, the flasks were moved to 30 °C and incubated for 48-72 hrs. On the day of assaying, cells were detached and harvested. The cell pellet was re-suspended in SMF4HEK (HyClone)/25mM HEPS at 2-5 million/ mL and placed on the QStirrer of the QPatch for 30-60 min prior to the start of the assay. […] Microtiter-Plate/Reference Buffer contained 140 mM TEA-Cl, 10mM BaCl2, 0.8 mM MgCl2, 10 mM HEPES pH ∼7.4 adjusted with TEA-OH/HCl, and ∼300mOsm. Cells were transferred to a QPatch 48 plate and gigaseal was formed. The plate was perfused with intracellular and extracellular buffer. […] In brief, cells were depolarized from resting potential of -80 mV to +20 mV and current was recorded. Data was plotted as percent inhibition vs concentration of the compound and IC50 values were generated using Graphpad Prism non-linear regression analysis.

human N-type Ca channel [2] = molecular target: T1, human N-type Ca channel; experiment: Calcium influx assay (FDSS), KCl depolarization, Fluo8 dye; format: cell-based; set-up: host or cells: HEK 293; conditions: HEK 293 cells expressing human N-type Ca channel; 100 mM KCl; read-out: N Type IC50 Data FDSS
Method: All cell culture reagents were procured from HyClone and other reagents were from Fisher. Recombinant HEK 293 cells expressing human N-type Ca channel (Millipore) were maintained in DMEM F12 containing 10% FBS and selection antibiotics at 37 °C in 5% CO2.
Cells were incubated at 30 °C in 5% CO2 overnight. The medium was removed and cells were loaded with Fluo8 dye (AAT Bioquest) at 37 °C and 30 °C, 30 min each in darkness. Cells were washed four times with wash buffer (16 mM Herep pH 7.2, 2 mM CaCl2, 1 mM MgCl2, 5 mM glucose, 140 mM choline chloride and 2 mM KCl) leaving 15 µL buffer after the last wash. Compounds of Formula (I), serially diluted, were added to the cell plate. The plates were incubated in darkness for 15 min. Cells were depolarized with 100 mM KCl and Ca influx was measured.

[3] = N Type IC50 Data Qpatch Pulse=15, Pulse=15, concentration range 0.3-10 µM
[4] = N Type IC50 Data Qpatch Pulse=1, Pulse=1, concentration range 0.01-1 µM
[5] = read-out: N Type IC50 Data Qpatch Pulse=15, Pulse=15, concentration range 0.01-1 µM
[6] = N Type IC50 Data Qpatch Pulse=1, Pulse=1, concentration range 0.3-10 µM
[7] = N Type IC50 Data Qpatch Pulse=15, Pulse=15, concentration range 0.01-1 µM

T1 sequence (Q00975 whole entry): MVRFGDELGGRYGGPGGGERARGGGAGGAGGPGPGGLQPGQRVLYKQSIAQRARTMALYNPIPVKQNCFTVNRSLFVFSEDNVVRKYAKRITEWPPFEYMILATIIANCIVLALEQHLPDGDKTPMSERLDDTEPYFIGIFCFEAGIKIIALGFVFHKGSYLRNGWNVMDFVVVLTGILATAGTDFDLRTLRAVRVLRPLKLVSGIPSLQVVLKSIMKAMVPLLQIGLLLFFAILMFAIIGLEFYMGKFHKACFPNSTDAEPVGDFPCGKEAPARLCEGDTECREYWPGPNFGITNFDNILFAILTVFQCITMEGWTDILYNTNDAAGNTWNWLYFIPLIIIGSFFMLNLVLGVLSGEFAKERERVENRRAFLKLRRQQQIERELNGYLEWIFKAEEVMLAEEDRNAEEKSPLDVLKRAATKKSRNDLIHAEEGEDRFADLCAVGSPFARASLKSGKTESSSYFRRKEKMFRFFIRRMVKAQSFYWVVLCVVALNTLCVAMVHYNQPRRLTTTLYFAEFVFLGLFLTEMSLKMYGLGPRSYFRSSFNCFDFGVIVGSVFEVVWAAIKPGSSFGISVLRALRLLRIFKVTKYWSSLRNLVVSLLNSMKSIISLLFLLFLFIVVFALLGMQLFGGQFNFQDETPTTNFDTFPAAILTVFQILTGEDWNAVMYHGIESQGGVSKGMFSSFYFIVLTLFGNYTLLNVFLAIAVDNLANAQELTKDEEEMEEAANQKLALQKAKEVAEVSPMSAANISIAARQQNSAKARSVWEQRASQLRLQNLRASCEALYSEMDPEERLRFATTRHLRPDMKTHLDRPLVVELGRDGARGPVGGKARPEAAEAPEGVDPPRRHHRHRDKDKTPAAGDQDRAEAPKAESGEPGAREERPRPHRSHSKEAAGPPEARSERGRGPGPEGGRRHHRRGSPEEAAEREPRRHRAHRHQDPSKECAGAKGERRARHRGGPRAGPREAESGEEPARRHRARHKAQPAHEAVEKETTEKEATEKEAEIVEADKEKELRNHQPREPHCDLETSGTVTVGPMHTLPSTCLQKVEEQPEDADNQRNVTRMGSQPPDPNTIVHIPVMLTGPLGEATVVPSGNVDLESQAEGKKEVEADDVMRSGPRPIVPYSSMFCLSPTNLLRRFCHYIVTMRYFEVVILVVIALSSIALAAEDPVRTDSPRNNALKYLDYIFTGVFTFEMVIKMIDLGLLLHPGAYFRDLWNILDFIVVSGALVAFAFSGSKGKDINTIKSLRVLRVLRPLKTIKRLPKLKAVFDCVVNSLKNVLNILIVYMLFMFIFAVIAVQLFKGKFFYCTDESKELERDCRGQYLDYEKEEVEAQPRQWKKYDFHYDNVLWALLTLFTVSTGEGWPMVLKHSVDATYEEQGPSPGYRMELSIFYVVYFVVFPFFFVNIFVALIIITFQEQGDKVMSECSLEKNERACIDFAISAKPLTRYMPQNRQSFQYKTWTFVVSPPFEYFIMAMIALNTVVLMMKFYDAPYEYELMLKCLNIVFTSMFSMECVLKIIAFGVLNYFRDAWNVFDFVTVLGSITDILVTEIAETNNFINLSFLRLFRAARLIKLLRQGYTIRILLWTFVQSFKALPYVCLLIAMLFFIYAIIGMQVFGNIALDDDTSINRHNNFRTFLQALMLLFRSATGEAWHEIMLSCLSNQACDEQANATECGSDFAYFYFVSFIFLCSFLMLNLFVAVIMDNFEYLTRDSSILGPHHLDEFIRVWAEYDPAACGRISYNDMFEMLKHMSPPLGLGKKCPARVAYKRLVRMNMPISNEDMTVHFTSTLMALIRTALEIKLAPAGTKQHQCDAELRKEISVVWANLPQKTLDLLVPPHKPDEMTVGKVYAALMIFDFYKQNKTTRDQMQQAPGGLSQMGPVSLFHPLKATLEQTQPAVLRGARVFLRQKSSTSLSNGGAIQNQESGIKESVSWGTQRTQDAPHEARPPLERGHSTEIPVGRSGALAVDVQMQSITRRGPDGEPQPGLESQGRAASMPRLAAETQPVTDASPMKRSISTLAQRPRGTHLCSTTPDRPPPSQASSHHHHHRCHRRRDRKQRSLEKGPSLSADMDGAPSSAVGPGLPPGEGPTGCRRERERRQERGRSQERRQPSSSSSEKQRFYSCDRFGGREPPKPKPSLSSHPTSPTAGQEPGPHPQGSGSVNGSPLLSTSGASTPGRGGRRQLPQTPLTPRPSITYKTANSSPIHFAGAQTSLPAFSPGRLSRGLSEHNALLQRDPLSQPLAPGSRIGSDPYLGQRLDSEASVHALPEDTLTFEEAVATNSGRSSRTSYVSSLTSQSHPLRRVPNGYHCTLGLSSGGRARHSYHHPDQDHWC
T1 sequence (P54284 whole entry partner): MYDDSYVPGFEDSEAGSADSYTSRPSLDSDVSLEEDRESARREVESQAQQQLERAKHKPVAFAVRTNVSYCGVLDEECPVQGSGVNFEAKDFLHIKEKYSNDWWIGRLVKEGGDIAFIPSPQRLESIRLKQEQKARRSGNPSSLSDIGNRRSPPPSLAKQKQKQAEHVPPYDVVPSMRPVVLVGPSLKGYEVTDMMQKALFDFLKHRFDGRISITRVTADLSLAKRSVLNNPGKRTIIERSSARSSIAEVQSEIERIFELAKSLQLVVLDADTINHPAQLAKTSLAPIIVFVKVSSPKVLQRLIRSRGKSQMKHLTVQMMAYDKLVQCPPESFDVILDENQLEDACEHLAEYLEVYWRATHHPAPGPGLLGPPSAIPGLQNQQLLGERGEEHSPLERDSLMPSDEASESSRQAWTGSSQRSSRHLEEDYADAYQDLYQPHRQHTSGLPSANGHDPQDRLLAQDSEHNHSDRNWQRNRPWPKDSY
T1 sequence (P54289 25-956 partner limits assumed): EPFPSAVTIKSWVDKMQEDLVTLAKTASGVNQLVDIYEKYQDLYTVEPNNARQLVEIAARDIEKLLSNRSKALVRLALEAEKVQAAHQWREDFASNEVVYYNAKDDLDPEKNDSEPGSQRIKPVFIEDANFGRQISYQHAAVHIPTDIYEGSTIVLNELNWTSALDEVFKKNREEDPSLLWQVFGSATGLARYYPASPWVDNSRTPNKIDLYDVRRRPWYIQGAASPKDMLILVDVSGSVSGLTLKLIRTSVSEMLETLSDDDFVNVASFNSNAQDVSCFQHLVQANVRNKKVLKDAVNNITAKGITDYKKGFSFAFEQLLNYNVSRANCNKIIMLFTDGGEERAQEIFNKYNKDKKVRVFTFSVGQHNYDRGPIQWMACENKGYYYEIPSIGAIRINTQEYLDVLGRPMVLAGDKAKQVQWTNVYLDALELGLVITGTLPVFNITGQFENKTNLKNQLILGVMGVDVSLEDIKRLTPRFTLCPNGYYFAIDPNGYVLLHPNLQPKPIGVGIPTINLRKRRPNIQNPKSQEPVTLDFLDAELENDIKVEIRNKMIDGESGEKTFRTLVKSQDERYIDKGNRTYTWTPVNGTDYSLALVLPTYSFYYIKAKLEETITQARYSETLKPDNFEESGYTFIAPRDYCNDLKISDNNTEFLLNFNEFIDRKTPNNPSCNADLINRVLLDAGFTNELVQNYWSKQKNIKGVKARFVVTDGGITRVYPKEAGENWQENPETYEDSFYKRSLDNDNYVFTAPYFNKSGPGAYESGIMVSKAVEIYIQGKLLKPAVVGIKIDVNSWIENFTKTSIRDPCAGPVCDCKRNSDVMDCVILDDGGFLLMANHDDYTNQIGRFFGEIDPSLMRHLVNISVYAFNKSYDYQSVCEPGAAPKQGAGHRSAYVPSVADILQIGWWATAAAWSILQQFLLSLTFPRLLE
T1 sequence (P54289 957-1103 partner limits assumed): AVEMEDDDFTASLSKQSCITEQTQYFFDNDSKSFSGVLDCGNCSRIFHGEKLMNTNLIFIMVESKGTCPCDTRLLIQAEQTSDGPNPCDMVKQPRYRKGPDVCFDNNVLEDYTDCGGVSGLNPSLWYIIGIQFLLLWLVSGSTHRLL

SMILES | IC50 (human N-type Ca channel [2]) | IC50 (human N-type Ca channel [1]; [4]) | further results
COc1cnccc1-c1nc(C2CC(C)(C)OC(C)(C)C2)cn1-c1ccc(F)cc1 [Compound 2, 4-(1-(4-fluorophenyl)-4-(2,2,6,6 tetramethyltetrahydro-2H-pyran-4-yl)-1H-imidazol-2-yl)-3-methoxypyridine] | 128 nM | – | IC50 (human N-type Ca channel [1]; [3]): 6200 nM
CCOc1ccc(-n2cc(C3CC(C)(C)OC(C)(C)C3)nc2-c2ccncc2OC)cc1 [Compound 3, 4-(1-(4-ethoxyphenyl)-4-(2,2,6,6-tetramethyltetrahydro-2H-pyran-4-yl)-1H-imidazol-2-yl)-3-methoxypyridine] | 376 nM | 830 nM | IC50 (human N-type Ca channel [1]; [5]): > 1000 nM
COc1ccccc1-c1nc(C2CC(C)(C)OC(C)(C)C2)cn1-c1ccc(F)cc1 [Compound 4, 1-(4-fluorophenyl)-2-(2-methoxyphenyl)-4-(2,2,6,6-tetramethyltetrahydro-2H-pyran-4-yl)-1H-imidazole] | 17 nM | – | IC50 (human N-type Ca channel [1]; [3]): 1060 nM
COc1ccccc1-c1nc(C2CC(C)(C)OC(C)(C)C2)cn1-c1ccc(C)nc1 [Compound 5, 5-(2-(2-methoxyphenyl)-4-(2,2,6,6-tetramethyltetrahydro-2H-pyran-4-yl)-1H-imidazol-1-yl)-2-methylpyridine] | 191 nM | – | IC50 (human N-type Ca channel [1]; [6]): 5900 nM
COc1ccccc1-c1nc(C2CC(C)(C)OC(C)(C)C2)cn1-c1ccc(C)cn1 [Compound 6, 2-(2-(2-methoxyphenyl)-4-(2,2,6,6-tetramethyltetrahydro-2H-pyran-4-yl)-1H-imidazol-1-yl)-5-methylpyridine] | 739 nM | – | –
COc1ccc(-n2cc(C3CC(C)(C)OC(C)(C)C3)nc2-c2ccccc2OC)cc1 [Compound 7, 2-(2-methoxyphenyl)-1-(4-methoxyphenyl)-4-(2,2,6,6-tetramethyltetrahydro-2H-pyran-4-yl)-1H-imidazole] | 113 nM | – | IC50 (human N-type Ca channel [1]; [6]): 1170 nM; IC50 (human N-type Ca channel [1]; [3]): 680 nM
COc1ccccc1-c1nc(C2CC(C)(C)OC(C)(C)C2)cn1-c1cnc(C)nc1 [Compound 8, 5-(2-(2-methoxyphenyl)-4-(2,2,6,6-tetramethyltetrahydro-2H-pyran-4-yl)-1H-imidazol-1-yl)-2-mithylpyrimidine] | > 10000 nM | 508 nM | IC50 (human N-type Ca channel [1]; [7]): > 1000 nM
COc1ncccc1-c1nc(C2CC(C)(C)OC(C)(C)C2)cn1Cc1cccc(Cl)c1 [Compound 9, 3-(1-(3-chlorobenzyl)-4-(2,2,6,6-tetramethyltetrahydro-2H-pyran-4-yl)-1H-imidazol-2-yl)-2-methoxypyridine] | 793 nM | – | –
COc1cccnc1-c1nc(C2CC(C)(C)OC(C)(C)C2)cn1-c1ccc(C#N)cc1 [Compound 12, 4-(2-(3-methoxypyridin-2-yl)-4-(2,2,6,6-tetramethyltetrahydro-2H-pyran-4-yl)-1H-imidazol-1-yl)benzonitrile] | 630 nM | – | inhibition at 10 µM (human N-type Ca channel [1]): 28%
COc1cnccc1-c1nc(C2CC(C)(C)OC(C)(C)C2)cn1-c1ccc(Cl)c(F)c1 [Compound 13, 4-(1-(4-chloro-3-fluorophenyl)-4-(2,2,6,6-tetramethyltetrahydro-2H-pyran-4-yl)-1H-imidazol-2-yl)-3-methoxypyridine] | 200 nM | > 1000 nM | IC50 (human N-type Ca channel [1]; [5]): > 1000 nM
COc1ccccc1-c1nc(C2CC(C)(C)OC(C)(C)C2)cn1-c1ccc(Cl)c(C#N)c1 [Compound 14, 2-chloro-5-(2-(2-methoxyphenyl)-4-(2,2,6,6-tetramethyltetrahydro-2H-pyran-4-yl)-1H-imidazol-1-yl)benzonitrile] | 2700 nM | 266 nM | IC50 (human N-type Ca channel [1]; [7]): > 1000 nM
COc1ncccc1-c1nc(C2CC(C)(C)OC(C)(C)C2)cn1-c1ccc(C#N)c(C)c1 [Compound 15, 4-(2-(2-methoxypyridin-3-yl)-4-(2,2,6,6-tetramethyltetrahydro-2H-pyran-4-yl)-1H-imidazol-1-yl)-2-methylbenzonitrile] | 256 nM | – | N Type IC50 Data Qpatch Pulse=1 (human N-type Ca channel [1]): poor fit(0.01-0.3 µM); N Type IC50 Data Qpatch Pulse=15 (human N-type Ca channel [1]; Pulse=15): poor fit(0.01-0.3 µM)
COc1ncccc1-c1nc(C2CC(C)(C)OC(C)(C)C2)cn1-c1ccc(F)c(F)c1F [Compound 16, 2-methoxy-3-(4-(2,2,6,6-tetramethyltetrahydro-2H-pyran-4-yl)-1-(2,3,4-trifluorophenyl)-1H-imidazol-2-yl)pyridine] | 359 nM | – | N Type IC50 Data Qpatch Pulse=1 (human N-type Ca channel [1]): poor fit(0.01-0.3 µM); N Type IC50 Data Qpatch Pulse=15 (human N-type Ca channel [1]; Pulse=15): poor fit(0.01-0.3µM)
COc1cccnc1-c1nc(C2CC(C)(C)OC(C)(C)C2)cn1-c1ccc(F)c(Cl)c1 [Compound 17, 2-(1-(3-chloro-4-fluorophenyl)-4-(2,2,6,6-tetramethyltetrahydro-2H-pyran-4-yl)-1H-imidazol-2-yl)-3-methoxypyridine] | 591 nM | – | IC50 (human N-type Ca channel [1]; [6]): 4400 nM; IC50 (human N-type Ca channel [1]; [3]): 5200 nM
COc1cnccc1-c1nc(C2CC(C)(C)OC(C)(C)C2)cn1-c1ccc(F)c(Cl)c1 [Compound 18, 4-(1-(3-chloro-4-fluorophenyl)-4-(2,2,6,6-tetramethyltetrahydro-2H-pyran-4-yl)-1H-imidazol-2-yl)-3-methoxypyridine] | 108 nM | 694 nM | IC50 (human N-type Ca channel [1]; [7]): 376 nM
COc1cccnc1-c1nc(C2CC(C)(C)OC(C)(C)C2)cn1-c1ccc(Cl)c(F)c1 [Compound 19, 2-(1-(4-chloro-3-fluorophenyl)-4-(2,2,6,6-tetramethyltetrahydro-2H-pyran-4-yl)-1H-imidazol-2-yl)-3-methoxypyridine] | 263 nM | 966 nM | inhibition at 1 µM (human N-type Ca channel [1]; read-out: Qpatch Pulse=15 (percent inhibition)): 28%
COc1ccncc1-c1nc(C2CC(C)(C)OC(C)(C)C2)cn1-c1ccc(F)c(Cl)c1 [Compound 20, 3-(1-(3-chloro-4-fluorophenyl)-4-(2,2,6,6-tetramethyltetrahydro-2H-pyran-4-yl)-1H-imidazol-2-yl)-4-methoxypyridine] | 1060 nM | > 1000 nM | IC50 (human N-type Ca channel [1]; [5]): > 1000 nM
COc1ccccc1-c1nc(C2CC(C)(C)OC(C)(C)C2)cn1-c1ccc(C#N)c(C)c1 [Compound 21, 4-(2-(2-methoxyphenyl)-4-(2,2,6,6-tetramethyltetrahydro-2H-pyran-4-yl)-1H-imidazol-1-yl)-2-methylbenzonitrile] | 119 nM | 639 nM | –
COc1ccccc1-c1nc(C2CC(C)(C)OC(C)(C)C2)cn1-c1ccc(C)c(C#N)c1 [Compound 22, 5-(2-(2-methoxyphenyl)-4-(2,2,6,6-tetramethyltetrahydro-2H-pyran-4-yl)-1H-imidazol-1-yl)-2-methylbenzonitrile] | 75 nM | 590 nM | IC50 (human N-type Ca channel [1]; [7]): 847 nM
COc1ccc(-n2cc(C3CC(C)(C)OC(C)(C)C3)nc2-c2cccnc2OC)cc1F [Compound 23, 3-(1-(3-fluoro-4-methoxyphenyl)-4-(2,2,6,6-tetramethyltetrahydro-2H-pyran-4-yl)-1H-imidazol-2-yl)-2-methoxypyridine] | 310 nM | – | IC50 (human N-type Ca channel [1]; [5]): > 1000 nM
COc1cc(-n2cc(C3CC(C)(C)OC(C)(C)C3)nc2-c2cccnc2OC)ccc1F [Compound 24, 3-(1-(4-fluoro-3-methoxyphenyl)-4-(2,2,6,6-tetramethyltetrahydro-2H-pyran-4-yl)-1H-imidazol-2-yl)-2-methoxypyridine] | 7150 nM | – | IC50 (human N-type Ca channel [1]; [5]): > 1000 nM
COc1ncccc1-c1nc(C2CC(C)(C)OC(C)(C)C2)cn1-c1ccc(C)c(C#N)c1 [Compound 25, 5-(2-(2-methoxypyridin-3-yl)-4-(2,2,6,6-tetramethyltetrahydro-2H-pyran-4-yl)-1H-imidazol-1-yl)-2-methylbenzonitrile] | 818 nM | > 1000 nM | IC50 (human N-type Ca channel [1]; [5]): > 1000 nM
COc1cccnc1-c1nc(C2CC(C)(C)OC(C)(C)C2)cn1-c1ccc(F)c(F)c1 [Compound 35, 2-(1-(3,4-difluorophenyl)-4-(2,2,6,6-tetramethyltetrahydro-2H-pyran-4-yl)-1H-imidazol-2-yl)-3-methoxypyridine] | 838 nM | – | –
COc1cccnc1-c1nc(C2CC(C)(C)OC(C)(C)C2)cn1-c1ccc(Cl)cc1 [Compound 67, 2-(1-(4-chlorophenyl)-4-(2,2,6,6-tetramethyltetrahydro-2H-pyran-4-yl)-1H-imidazol-2-yl)-3-methoxypyridine] | 166 nM | – | –
COc1ccccc1-c1nc(C2CC(C)(C)OC(C)(C)C2)cn1Cc1cncnc1 [Compound 100, 5-((2-(2-methoxyphenyl) - 4-(2,2,6,6-tetramethyltetrahydro-2H-pyran-4-yl)-1H-imidazol-1-yl)methyl) pyrimidine] | 10000 nM | – | –
COc1cccnc1-c1nc(C2(O)CC(C)(C)OC(C)(C)C2)cn1-c1ccc(Cl)cc1 [Compound 104, 4-(1-(4-chlorophenyl)-2-(3-methoxypyridin-2-yl)-1H-imidazol-4-yl)-2,2,6,6-tetramethyltetrahydro-2H-pyran-4-ol] | 464 nM | – | –
COc1ncccc1-c1nc(C2(O)CC(C)(C)OC(C)(C)C2)cn1-c1ccc(C#N)cc1 [Compound 115, 4-(4-(4-hydroxy-2,2,6,6-tetramethyltetrahydro-2H-pyran-4-yl)-2-(2-methoxypyridin-3-yl)-1H-imidazol-1-yl)benzonitrite] | 731 nM | – | –
COc1ccccc1-c1nc(C2=CC(C)(C)OC(C)(C)C2)cn1-c1ccc(C#N)c(F)c1 [Compound 126] | – | – | inhibition at 10 µM (human N-type Ca channel [1]): 29%
